Several values for one entry are separate records, joined by “and”; a condition that tells them apart may be missing. Equal values may be shown once. Toxic doses and inconclusive results are not listed. Rule as the data show it: active = T/C of 150% or more; inactive = T/C below 125%.
Test system: L1210 leukemia ip in BDF1 mice, survival T/C
Experiment: NCI In Vivo Anticancer Drug Screen. Data for tumor model L1210 Leukemia (intraperitoneal) in B6D2F1 (BDF1) mice
Details: endpoint: mean survival time, higher = longer survival
Outline: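 Mice bearing the transplanted tumor received compound or vehicle. Survival of the treated group was divided by that of the vehicle-treated control group to give the ratio.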

[1] = dose: 100.0 mg/kg/injection, schedule: Q01DX001 (ip), vehicle: saline
[2] = dose: 200.0 mg/kg/injection, schedule: Q01DX001 (ip), vehicle: saline
[3] = dose: 400.0 mg/kg/injection, schedule: Q01DX001 (ip), vehicle: saline
[4] = dose: 50.0 mg/kg/injection, schedule: Q01DX009 (ip), vehicle: saline with Tween-80
[5] = dose: 75.0 mg/kg/injection, schedule: Q01DX001 (ip), vehicle: saline
[6] = dose: 12.5 mg/kg/injection, schedule: Q01DX009 (ip), vehicle: Klucel (hydroxypropylcellulose) (HPC)
[7] = dose: 25.0 mg/kg/injection, schedule: Q01DX009 (ip), vehicle: Klucel (hydroxypropylcellulose) (HPC)
[8] = dose: 50.0 mg/kg/injection, schedule: Q01DX009 (ip), vehicle: Klucel (hydroxypropylcellulose) (HPC)
[9] = dose: 25.0 mg/kg/injection, schedule: Q01DX009 (ip), vehicle: saline
[10] = dose: 50.0 mg/kg/injection, schedule: Q01DX009 (ip), vehicle: saline

Measured: T/C

CCOC(=O)CC(=O)OCC
inactive: [1] 93 % of control | [2] 93 % of control | [3] 90 % of control

C=CCCCCCCCCC(=O)NCCCN1CCOCC1
inactive: [4] 103 % of control | dose: 100.0 mg/kg/injection, schedule: Q01DX009 (ip), vehicle: saline with Tween-80 103 % of control

CNC(=O)c1cc(NC(=O)c2ccc(C(=O)Nc3cc(C(=O)NC)cc(C4=NCCN4)c3)cc2)cc(C2=NCCN2)c1
inactive: dose: 16.0 mg/kg/injection, schedule: Q01DX015 (ip), vehicle: methylcellulose (MC) 90 % of control | dose: 25.0 mg/kg/injection, schedule: Q01DX009 (ip), vehicle: carboxymethylcellulose (CMC) 96 % of control | dose: 31.0 mg/kg/injection, schedule: Q01DX015 (ip), vehicle: methylcellulose (MC) 94 % of control | dose: 50.0 mg/kg/injection, schedule: Q01DX009 (ip), vehicle: carboxymethylcellulose (CMC) 96 % of control | dose: 62.0 mg/kg/injection, schedule: Q01DX015 (ip), vehicle: methylcellulose (MC) 94 % of control and 120 % of control | dose: 100.0 mg/kg/injection, schedule: Q01DX001 (ip), vehicle: carboxymethylcellulose (CMC) 96 % of control | dose: 100.0 mg/kg/injection, schedule: Q01DX009 (ip), vehicle: carboxymethylcellulose (CMC) 113 % of control | dose: 125.0 mg/kg/injection, schedule: Q01DX015 (ip), vehicle: methylcellulose (MC) 94 % of control and 102 % of control | dose: 200.0 mg/kg/injection, schedule: Q01DX001 (ip), vehicle: carboxymethylcellulose (CMC) 91 % of control | dose: 200.0 mg/kg/injection, schedule: Q01DX009 (ip), vehicle: carboxymethylcellulose (CMC) 98 % of control | dose: 500.0 mg/kg/injection, schedule: Q01DX015 (ip), vehicle: methylcellulose (MC) 106 % of control

O=S(=O)(ON/N=C/c1cc2ccccc2c2ccccc12)c1ccccc1
inactive: dose: 75.0 mg/kg/injection, schedule: Q01DX009 (ip), vehicle: Klucel (hydroxypropylcellulose) (HPC) 96 % of control | dose: 150.0 mg/kg/injection, schedule: Q01DX009 (ip), vehicle: Klucel (hydroxypropylcellulose) (HPC) 96 % of control | dose: 300.0 mg/kg/injection, schedule: Q01DX009 (ip), vehicle: Klucel (hydroxypropylcellulose) (HPC) 98 % of control

CC(=O)/C=C/c1ccc([N+](=O)[O-])cc1
inactive: dose: 100.0 mg/kg/injection, schedule: Q04DX003 (ip), vehicle: saline sonified 95 % of control | dose: 200.0 mg/kg/injection, schedule: Q04DX003 (ip), vehicle: saline sonified 89 % of control | dose: 400.0 mg/kg/injection, schedule: Q04DX003 (ip), vehicle: saline sonified 92 % of control

CCC(=O)c1cc(O)ccc1O
inactive: dose: 100.0 mg/kg/injection, schedule: Q04DX003 (ip), vehicle: other 93 % of control | dose: 200.0 mg/kg/injection, schedule: Q04DX003 (ip), vehicle: other 98 % of control

Cc1ccc(N2CCN(c3ccc(C)cc3)CC2)cc1
inactive: dose: 100.0 mg/kg/injection, schedule: Q04DX002 (ip), vehicle: gum acacia 109 % of control | dose: 200.0 mg/kg/injection, schedule: Q04DX002 (ip), vehicle: gum acacia 95 % of control | dose: 400.0 mg/kg/injection, schedule: Q04DX002 (ip), vehicle: gum acacia 103 % of control

CC1(C#N)CCC(CCc2ccccc2)C(=O)C1 (stereo not drawn)
inactive: [5] 109 % of control | dose: 75.0 mg/kg/injection, schedule: Q01DX009 (ip), vehicle: saline 99 % of control | dose: 150.0 mg/kg/injection, schedule: Q01DX001 (ip), vehicle: saline 95 % of control | dose: 150.0 mg/kg/injection, schedule: Q01DX009 (ip), vehicle: saline 94 % of control | dose: 300.0 mg/kg/injection, schedule: Q01DX001 (ip), vehicle: saline 92 % of control | dose: 300.0 mg/kg/injection, schedule: Q01DX009 (ip), vehicle: saline 96 % of control

CN1CCC(S)(S)CC1
inactive: dose: 12.5 mg/kg/injection, schedule: Q01DX009 (ip), vehicle: saline with Tween-80 105 % of control | dose: 12.5 mg/kg/injection, schedule: Q04DX003 (ip), vehicle: saline with Tween-80 96 % of control | dose: 25.0 mg/kg/injection, schedule: Q01DX009 (ip), vehicle: saline with Tween-80 93 % of control | dose: 25.0 mg/kg/injection, schedule: Q04DX003 (ip), vehicle: saline with Tween-80 102 % of control | [4] 104 % of control | dose: 50.0 mg/kg/injection, schedule: Q04DX003 (ip), vehicle: saline with Tween-80 106 % of control

CCCC#CC(=O)OCCCCCC
inactive: dose: 100.0 mg/kg/injection, schedule: Q04DX002 (ip), vehicle: saline 96 % of control | dose: 200.0 mg/kg/injection, schedule: Q04DX002 (ip), vehicle: saline 111 % of control | dose: 400.0 mg/kg/injection, schedule: Q04DX002 (ip), vehicle: saline 103 % of control

NC(N)=NS(=O)(=O)c1ccc(C(N)=NC2CCCCC2)cc1
inactive: [1] 96 % of control | [2] 96 % of control | [3] 90 % of control

OC(c1ccccc1)C(O)c1ccccc1 (stereo not drawn)
inactive: dose: 5.0 mg/kg/injection, schedule: Q01DX001 (ip), vehicle: saline 103 % of control | dose: 10.0 mg/kg/injection, schedule: Q01DX001 (ip), vehicle: saline 100 % of control | [6] 93 % of control | dose: 20.0 mg/kg/injection, schedule: Q01DX001 (ip), vehicle: saline 97 % of control | [7] 92 % of control | dose: 40.0 mg/kg/injection, schedule: Q01DX001 (ip), vehicle: saline 92 % of control | [8] 93 % of control | dose: 80.0 mg/kg/injection, schedule: Q01DX001 (ip), vehicle: saline 98 % of control

C=CC1CN2CCC1CC2C(O)c1ccnc2ccccc12 (stereo not drawn)
inactive: dose: 100.0 mg/kg/injection, schedule: Q01DX009 (ip), vehicle: gum acacia 107 % of control | dose: 200.0 mg/kg/injection, schedule: Q01DX009 (ip), vehicle: gum acacia 105 % of control

CCN(CC)Cc1cc(Nc2c(C)cnc3cc(Cl)ccc23)ccc1O
inactive: [9] 94 % of control | [10] 90 % of control

CC(=O)OCCS(=O)(=O)CCc1ccccc1
inactive: dose: 62.5 mg/kg/injection, schedule: Q01DX009 (ip), vehicle: Klucel (hydroxypropylcellulose) (HPC) 96 % of control | dose: 125.0 mg/kg/injection, schedule: Q01DX009 (ip), vehicle: Klucel (hydroxypropylcellulose) (HPC) 100 % of control | dose: 250.0 mg/kg/injection, schedule: Q01DX009 (ip), vehicle: Klucel (hydroxypropylcellulose) (HPC) 98 % of control

O=C1C=CC(=Nc2cc(Cl)c(O)c(Cl)c2)C(Cl)=C1
inactive: [6] 96 % of control | [7] 96 % of control | [8] 92 % of control

CC(C)NCCC(=O)c1ccc(OCc2ccccc2)cc1
inactive: [9] 106 % of control | [10] 110 % of control | dose: 100.0 mg/kg/injection, schedule: Q01DX009 (ip), vehicle: saline 106 % of control and 119 % of control

O=C(N1CCN=C1C(Cl)(Cl)Cl)C(Cl)(Cl)Cl
inactive: dose: 100.0 mg/kg/injection, schedule: Q04DX003 (ip), vehicle: saline with Tween-80 100 % of control | dose: 200.0 mg/kg/injection, schedule: Q04DX003 (ip), vehicle: saline with Tween-80 102 % of control | dose: 400.0 mg/kg/injection, schedule: Q04DX003 (ip), vehicle: saline with Tween-80 102 % of control

CC(C)(COC(=O)c1ccc(N)cc1)NC1CCCCC1
inactive: [5] 96 % of control

O=C(Nc1ccc(Cl)cc1)Nc1ncccn1
inactive: dose: 100.0 mg/kg/injection, schedule: Q04DX002 (ip), vehicle: Klucel (hydroxypropylcellulose) (HPC) 96 % of control | dose: 200.0 mg/kg/injection, schedule: Q04DX002 (ip), vehicle: Klucel (hydroxypropylcellulose) (HPC) 93 % of control | dose: 400.0 mg/kg/injection, schedule: Q04DX002 (ip), vehicle: Klucel (hydroxypropylcellulose) (HPC) 96 % of control
